Common to all, as to details: 72 h
The subject of assay [1] is U2OS. The experiment in a line: fractional viability (live cells / total cells); higher = less cell death. Here is the method: (§1)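 U2OS::Nuc-mKate2 cells seeded in 96-well plates and treated with eight- to ten-point half-log or log dilutions of drug in the presence of 50 nM SYTOX Green. Live (mKate2+) and dead (SYTOX+) cells were counted by IncuCyte STACK live-cell microscopy at 72 h; biological triplicates. GR is the normalised growth-rate inhibition value (Hafner 2016; 1 = untreated growth, <0 = population shrinking). FV is live/(live+dead) cells, not normalised.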

Assay [2] deals with U2OS. The experiment in a line: normalized growth rate inhibition value (GR) relative to untreated cells (GR value (dimensionless, 1 = untreated growth)); higher = less growth inhibition. As for the experimental part:
as §1

Assay [3] relates to U2OS. The experiment in a line: drug GRADE (percent of response due to cell death) (% (0-100)); higher = more death-driven response. Here is the method: (§2)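 U2OS cells treated with full dose titrations of drug; live and dead cells counted by STACK microscopy (mKate2 nuclei, SYTOX Green) at 72 h, biological triplicates. GR and FV dose responses were fitted with 4-parameter logistic models (GR lower bound -1). GRADE (0-100) is the rescaled angle of a linear fit of FV versus GR at doses with GR >= 0, giving the percentage of the response due to cell death.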

Assay [4] deals with U2OS. The assay can be described thus: GRmin (fitted minimal GR value at highest effect) (GR value (dimensionless)); higher = less efficacious. Here is the method: as §2
Assay [5] concerns U2OS. The assay can be described thus: GR50 (concentration giving GR = 0.5). Here is the method: as §2

As to `CCc1cncnc1N1CCN(Cc2nc3ccc(C(F)(F)F)cc3[nH]2)CC1`, the fractional viability in the assay with U2OS [1] (0.00100578 µM) is 0.988; in the assay on U2OS [1] (0.00317827 µM), 0.988; with U2OS [1] (0.0100433 µM), 0.988; with U2OS [1] (0.0317369 µM), 0.988; in the assay with U2OS [1] (0.100289 µM) it was 0.988; in the assay with U2OS [1] (0.316912 µM), 0.986. Also, the fractional viability with U2OS [1] (1.00144 µM) amounted to 0.992; in the assay with U2OS [1] (3.16456 µM), 0.989; in the assay on U2OS [1] (10 µM), 0.98. Further, the “normalized growth rate inhibition value” came to 1.06 with U2OS [2] (0.00100578 µM); 0.948 with U2OS [2] (0.00317827 µM); 1.04 in the assay with U2OS [2] (0.0100433 µM); 1.02 in the assay with U2OS [2] (0.0317369 µM); 0.896 with U2OS [2] (0.100289 µM); 1 in the assay on U2OS [2] (0.316912 µM). In addition, the figures for the “normalized growth rate inhibition value” with U2OS [2] (1.00144 µM), with U2OS [2] (3.16456 µM) and in the assay with U2OS [2] (10 µM) were 0.842, 0.943 and 0.734, respectively.
Take `Cc1nn(C)c(COc2ccc(N3CCN(S(=O)(=O)N(C)C)CC3)cc2)c1-c1cccc2c(CCCOc3cccc4ccccc34)c(C(=O)O)n(CCN3CCOCC3)c12`: the fractional viability in the assay on U2OS [1] (0.00100578 µM) stood at 0.991; with U2OS [1] (0.00317827 µM), 0.989; with U2OS [1] (0.0100433 µM), 0.987; in the assay with U2OS [1] (0.0317369 µM), 0.991; with U2OS [1] (0.100289 µM) it was 0.99; with U2OS [1] (0.316912 µM) it was 0.987. In addition, the results for the fractional viability in the assay on U2OS [1] (1.00144 µM), in the assay on U2OS [1] (3.16456 µM) and in the assay with U2OS [1] (10 µM) were 0.978, 0.96 and 0.852, respectively. For the same molecule, the “normalized growth rate inhibition value” in the assay on U2OS [2] (0.00100578 µM) turned out to be 0.982; with U2OS [2] (0.00317827 µM), 0.925; in the assay on U2OS [2] (0.0100433 µM), 0.967; in the assay on U2OS [2] (0.0317369 µM) it was 0.917; in the assay on U2OS [2] (0.100289 µM) it was 0.934; with U2OS [2] (0.316912 µM) it was 0.942. Moreover, the “normalized growth rate inhibition value” was found to be 0.899 with U2OS [2] (1.00144 µM), 0.919 in the assay with U2OS [2] (3.16456 µM) and 0.718 with U2OS [2] (10 µM).
As to `COC1CCN(C(=O)c2cc(Cc3n[nH]c(=O)c4ccccc34)ccc2F)CC1` [AZD2461], the fractional viability in the assay on U2OS [1] (0.01 µM) was found to be 0.974; in the assay on U2OS [1] (0.0316 µM), 0.973; in the assay on U2OS [1] (0.1 µM) it was 0.978; in the assay with U2OS [1] (0.316 µM) it was 0.975; with U2OS [1] (1 µM) it was 0.972; with U2OS [1] (3.16 µM) it was 0.97. In addition, the values for the fractional viability in the assay on U2OS [1] (10 µM) and in the assay on U2OS [1] (31.6 µM) were 0.959 and 0.919, respectively. Besides, the “drug GRADE” value in the assay with U2OS [3] was found to be 13.6. Moreover, the “normalized growth rate inhibition value” in the assay with U2OS [2] (0.01 µM) was determined as 1.01; in the assay on U2OS [2] (0.0316 µM) it was 0.882; in the assay with U2OS [2] (0.1 µM) it was 0.946; in the assay on U2OS [2] (0.316 µM), 0.923; in the assay with U2OS [2] (1 µM), 0.93; in the assay with U2OS [2] (3.16 µM) it was 0.849. Also, the “normalized growth rate inhibition value” turned out to be 0.682 in the assay with U2OS [2] (10 µM) and 0.407 in the assay on U2OS [2] (31.6 µM). In addition, in the assay on U2OS [4], the GRmin worked out at 0.0439. In the assay on U2OS [5], the GR50 was 21.7 µM.
`Cc1nc(NC(=O)N2CCC[C@H]2C(N)=O)sc1-c1ccnc(C(C)(C)C(F)(F)F)c1` [Alpelisib]: the fractional viability in the assay on U2OS [1] (0.00100578 µM) is 0.986; with U2OS [1] (0.00317827 µM), 0.987; with U2OS [1] (0.0100433 µM) it was 0.987; with U2OS [1] (0.0317369 µM), 0.985; in the assay with U2OS [1] (0.100289 µM), 0.982; in the assay with U2OS [1] (0.316912 µM), 0.98. In addition, the fractional viability with U2OS [1] (1.00144 µM) was 0.971; in the assay on U2OS [1] (3.16456 µM), 0.965; in the assay with U2OS [1] (10 µM), 0.938. For the same molecule, the “drug GRADE” value in the assay on U2OS [3] is 9. The “normalized growth rate inhibition value” in the assay with U2OS [2] (0.00100578 µM) came to 0.96; with U2OS [2] (0.00317827 µM), 0.922; in the assay on U2OS [2] (0.0100433 µM) it was 0.922; with U2OS [2] (0.0317369 µM) it was 0.903; in the assay with U2OS [2] (0.100289 µM), 0.836; in the assay on U2OS [2] (0.316912 µM) it was 0.752. Also, the figures for the “normalized growth rate inhibition value” with U2OS [2] (1.00144 µM), in the assay with U2OS [2] (3.16456 µM) and with U2OS [2] (10 µM) were 0.794, 0.79 and 0.693, respectively. The molecule further had a GRmin with U2OS [4] of 0.695.
Regarding `C[C@H]1[C@H](OC(=O)CCC(=O)O)O[C@@H]2O[C@@]3(C)CC[C@H]4[C@H](C)CC[C@@H]1[C@@]24OO3` [Artesunate], the fractional viability was determined as 0.98 in the assay on U2OS [1] (0.01 µM); 0.974 in the assay on U2OS [1] (0.0316 µM); 0.976 with U2OS [1] (0.1 µM); 0.972 in the assay on U2OS [1] (0.316 µM); 0.977 with U2OS [1] (1 µM); 0.971 in the assay on U2OS [1] (3.16 µM). For the same molecule, the fractional viability in the assay on U2OS [1] (10 µM) turned out to be 0.941; with U2OS [1] (31.6 µM), 0.779. Also, the “drug GRADE” value with U2OS [3] is 35.4. Moreover, the “normalized growth rate inhibition value” worked out at 1.02 in the assay on U2OS [2] (0.01 µM); 0.827 with U2OS [2] (0.0316 µM); 0.944 in the assay with U2OS [2] (0.1 µM); 0.928 in the assay on U2OS [2] (0.316 µM); 0.89 with U2OS [2] (1 µM); 0.814 in the assay on U2OS [2] (3.16 µM). Moreover, the results for the “normalized growth rate inhibition value” with U2OS [2] (10 µM) and in the assay on U2OS [2] (31.6 µM) were 0.63 and 0.178, respectively. The same molecule yielded a GR50 in the assay with U2OS [5] of 14.7 µM.

The values are drawn from the supplement of paper PMC7394473.
